This note sets out measurements from PubChem BioAssay (NCI).

Holding throughout (assay): NCI tumour cell line growth inhibition, 48 h
For assay [1], the system named is 786-0 renal.
The test system of assay [2] is HCC-2998 colon.
Assay [3] deals with NCI-H460 lung.
Assay [4] has as its system NCI-H522 lung.
The test system of assay [5] is OVCAR-3 ovarian.
The test system of assay [6] is OVCAR-8 ovarian.
For assay [7], the system named is SK-MEL-5 melanoma.
Assay [8] concerns SW-620 colon.
In assay [9] the test system is T-47D breast.
For assay [10], the system named is UO-31 renal.

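Each compound was tested at five concentrations against cells in 96-well plates for 48 hours. At the GI50, growth is halved. TGI denotes the concentration required for complete inhibition of growth.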

Turning to `NC(=O)NC(=O)CI`, the GI50 is 4.7 µM in assay [1]; 18.5 µM in [2]; 18.5 µM in assay [3]; 0.208 µM in assay [4]; 1.92 µM in assay [5]; 3.23 µM in [6]. For the same compound, the GI50 was 12.9 µM in [7], 1.68 µM in assay [8], 1.72 µM in assay [9] and 1.68 µM in [10]. For the same compound, the TGI in assay [1] came out at 13.5 µM; in assay [2], 35.1 µM; in assay [3], 37.3 µM; in [4] it was 0.475 µM; in [5] it was 3.45 µM; in assay [6], 11.9 µM. The TGI was 26.4 µM in [7], 3.57 µM in assay [8], 3.9 µM in assay [9] and 3.19 µM in assay [10].
Regarding `CCCCOC(=O)N[C@H]1CCc2cc(OC)c(OC)c(OC)c2-c2ccc(SC)c(=O)cc21`, the TGI in assay [1] was 25.5 µM; in assay [2] it was 2.29 µM; in assay [3], 0.115 µM; in assay [4] it was less than 0.01 µM; in [5], less than 0.0329 µM; in assay [6], 12.7 µM. In addition, the TGI in [7] was less than 0.01 µM; in assay [8], 79 µM; in assay [9], 58.7 µM; in [10] it was 49.5 µM.
For `O=C1c2cccnc2-c2nc(-c3ccc([N+](=O)[O-])cc3)cc3c2c1nc1ccccc13`, the GI50 in assay [1] is 10.4 µM; in [2] it was 8 µM; in assay [3], 2.34 µM; in assay [4] it was 2 µM; in [5], 0.261 µM; in [6], 1.5 µM. Moreover, the GI50 in assay [7] is 0.825 µM; in assay [8], 3.21 µM; in assay [9], 10.6 µM; in [10], 5.1 µM. Besides, the TGI was 40.1 µM in assay [1]; 26.5 µM in assay [2]; 8.62 µM in assay [3]; 6.95 µM in [4]; 1.74 µM in assay [5]; 6.76 µM in assay [6]. Also, the TGI in assay [7] is 2.45 µM; in [8], 15.6 µM; in assay [9] it was 54.9 µM; in [10] it was greater than 66.1 µM.
For the compound `O=Cc1ccc(C(F)(F)F)cc1.[C-]#[O+].[C-]#[O+].[C-]#[O+].[Cr]`, the GI50 in assay [1] was 13.1 µM; in assay [2], 53.6 µM; in assay [3], 13.3 µM; in assay [4], 23.7 µM; in assay [5] it was 25.4 µM; in assay [6], 25.3 µM. Besides, the GI50 in assay [7] was 12.6 µM; in [8] it was 30.9 µM; in [9] it was 14.4 µM; in assay [10] it was 16 µM. Further, the TGI in assay [1] was 44.1 µM; in [2], greater than 100 µM; in assay [3], 40.3 µM; in assay [4], greater than 100 µM; in [5], greater than 100 µM; in assay [6], greater than 100 µM. The TGI in [7] was 28.3 µM; in [8], greater than 100 µM; in assay [9], 62.4 µM; in assay [10], 48.5 µM.
Turning to `Fc1ccc(Nc2nc(Nc3ccc(-c4nc5ccccc5[nH]4)cc3)nc(N3CCCC3)n2)cc1`, the GI50 in assay [1] is 1.8 µM; in assay [2], 2.39 µM; in [3], 2 µM; in assay [4], 2.16 µM; in [5] it was 2.75 µM; in assay [6], 2.36 µM. Also, the GI50 in [7] is 11.8 µM; in assay [8] it was 1.87 µM; in assay [9], 2.28 µM; in [10] it was 3.13 µM. Further, the TGI was 3.35 µM in assay [1]; 6.25 µM in assay [2]; 4.2 µM in assay [3]; 4.91 µM in [4]; 6.61 µM in [5]; 5.81 µM in assay [6]. In addition, the TGI came out at 24.4 µM in assay [7], 3.7 µM in assay [8], 5.58 µM in [9] and 14.4 µM in assay [10].
As to `CSC(=S)N/N=C(\C)c1ccccn1`, the GI50 in assay [1] is 0.315 µM; in [2] it was 0.509 µM; in [3] it was 0.289 µM; in assay [4] it was 0.0339 µM; in [5], less than 0.01 µM; in assay [6] it was 0.203 µM. Also, the GI50 in assay [7] is 0.28 µM; in assay [8], 0.169 µM; in [9] it was less than 0.01 µM; in [10], 0.154 µM. Moreover, the TGI in [1] amounted to 12.5 µM; in assay [2] it was 16.2 µM; in assay [3] it was 1.23 µM; in assay [4], 0.368 µM; in [6], 13.5 µM; in assay [7], 1.04 µM. The figures for the TGI in assay [8], in assay [9] and in assay [10] were 17.3 µM, 15.2 µM and 11.8 µM, respectively.
In the case of `C=C1C(=O)O[C@H]2[C@H]1CC/C(Cn1cc(CCC)nn1)=C\CC[C@@]1(C)O[C@@H]21`, the GI50 in [1] is 11.3 µM; in [2], 15.1 µM; in assay [3] it was 21.2 µM; in assay [4], 3.06 µM; in assay [5], 3.96 µM; in assay [6], 13.5 µM. For the same compound, the GI50 in assay [7] was 15.3 µM; in [8], 4.23 µM; in assay [9], 4.11 µM; in [10], 11.1 µM. For the same compound, the TGI in assay [1] is 25.5 µM; in [2], 32.9 µM; in assay [3], 41.5 µM; in assay [4] it was 10.7 µM; in [5], 14 µM; in assay [6], 29.8 µM. Moreover, the TGI in assay [7] was found to be 29.6 µM; in assay [8] it was 14.4 µM; in [9] it was 21.3 µM; in assay [10] it was 24.6 µM.
As to `Oc1ccc2ccccc2c1/C=N\Nc1ccccn1`, the GI50 in assay [1] is 0.618 µM; in assay [2], 4.13 µM; in [3] it was 0.336 µM; in [4], 0.413 µM; in assay [5], 0.349 µM; in [6], 0.365 µM. The GI50 is 1.57 µM in assay [7], 0.588 µM in assay [8], 0.97 µM in [9] and 0.114 µM in assay [10]. Also, the TGI in assay [1] was 4.58 µM; in assay [2] it was greater than 100 µM; in assay [3], 1.75 µM; in assay [5] it was greater than 56.8 µM; in [6], greater than 60.4 µM; in [7] it was greater than 50.1 µM. In addition, the figures for the TGI in assay [8], in assay [9] and in [10] were greater than 100 µM, greater than 100 µM and 1.31 µM, respectively.
